According to paper PMC4734333, “Structural characterisation of human galectin-4 N-terminal carbohydrate recognition domain in complex with glycerol, lactose, 3′-sulfo-lactose, and 2′-fucosyllactose” (Scientific Reports, 2016):

Legend:
Assay type in all cases: binding
[1] = target: T1, galectin-4N (human galectin-4 N-terminal CRD) (Homo sapiens, UniProt P56470); experiment: X-ray crystal structure ([…] Å) and competitive fluorescence anisotropy
T1 construct: gene LGALS4
T1 sequence (P56470 1-154): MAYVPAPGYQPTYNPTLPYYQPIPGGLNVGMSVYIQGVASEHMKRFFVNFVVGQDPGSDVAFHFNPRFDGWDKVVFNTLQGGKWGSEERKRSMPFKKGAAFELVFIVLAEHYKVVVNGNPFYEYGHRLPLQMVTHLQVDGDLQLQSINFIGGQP

[2] = target: T1, galectin-4N (human galectin-4 N-terminal CRD); experiment: as above; remark: listed apart in the source
[3] = target: T2, galectin-4N (human galectin-4 N-terminal CRD) (Homo sapiens, UniProt P56470); experiment: competitive fluorescence anisotropy
T2 construct: gene LGALS4; N-terminal CRD (galectin-4N)
T2 sequence (P56470 1-154 limits assumed): T1 sequence (P56470 1-154)

[4] = target: T1, galectin-4N (human galectin-4 N-terminal CRD); experiment: X-ray crystal structure ([…] Å) and competitive fluorescence anisotropy; remark: listed apart in the source

## C[C@@H]1O[C@@H](O[C@H]2[C@H](O[C@H]3[C@H](O)[C@@H](O)C(O)O[C@@H]3CO)O[C@H](CO)[C@H](O)[C@@H]2O)[C@@H](O)[C@H](O)[C@@H]1O (stereo partly shown) [2′FL, 2′-fucosyllactose]
[1]
  Kd: 380 µM

## O=S(=O)(O)O[C@H]1[C@@H](O)[C@@H](CO)O[C@@H](O[C@H]2[C@H](O)[C@@H](O)C(O)O[C@@H]2CO)[C@@H]1O (stereo partly shown) [3′SuL, lactose-3′-sulfate]
[2]
  Kd: 510 µM

## CC(=O)N[C@H]1[C@@H](O[C@H]2[C@@H](O)[C@@H](CO)O[C@@H](O[C@H]3[C@H](O)[C@@H](O)C(O)O[C@@H]3CO)[C@@H]2O[C@@H]2O[C@@H](C)[C@@H](O)[C@@H](O)[C@@H]2O)O[C@H](CO)[C@H](O)[C@@H]1O (stereo partly shown) [A-tetrasaccharide]
[3]
  Kd: 164 µM

## OC[C@H]1O[C@@H](O[C@H]2[C@H](O)[C@@H](O)C(O)O[C@@H]2CO)[C@H](O)[C@@H](O)[C@H]1O (stereo partly shown) [lactose]
[4]
  Kd: 1300 µM
